Blank lines part the entries; values can stand above or below the compound they belong to.
Key:
[1] = target: T1, GluN1/GluN2C (Rattus norvegicus, UniProt P35439+Q00961)
[2] = target: GluN1/GluN2A (Rattus norvegicus, UniProt P35439+Q00959)
[3] = target: GluN1/GluN2B (Rattus norvegicus, UniProt P35439+Q00960)
[4] = target: GluN1/GluN2D (Rattus norvegicus, UniProt P35439+Q62645)
[5] = target: T1, GluN1/GluN2C; experiment: cell-based

Sequence of GluN1/GluN2B (Q00960 27-1482, other chains not shown): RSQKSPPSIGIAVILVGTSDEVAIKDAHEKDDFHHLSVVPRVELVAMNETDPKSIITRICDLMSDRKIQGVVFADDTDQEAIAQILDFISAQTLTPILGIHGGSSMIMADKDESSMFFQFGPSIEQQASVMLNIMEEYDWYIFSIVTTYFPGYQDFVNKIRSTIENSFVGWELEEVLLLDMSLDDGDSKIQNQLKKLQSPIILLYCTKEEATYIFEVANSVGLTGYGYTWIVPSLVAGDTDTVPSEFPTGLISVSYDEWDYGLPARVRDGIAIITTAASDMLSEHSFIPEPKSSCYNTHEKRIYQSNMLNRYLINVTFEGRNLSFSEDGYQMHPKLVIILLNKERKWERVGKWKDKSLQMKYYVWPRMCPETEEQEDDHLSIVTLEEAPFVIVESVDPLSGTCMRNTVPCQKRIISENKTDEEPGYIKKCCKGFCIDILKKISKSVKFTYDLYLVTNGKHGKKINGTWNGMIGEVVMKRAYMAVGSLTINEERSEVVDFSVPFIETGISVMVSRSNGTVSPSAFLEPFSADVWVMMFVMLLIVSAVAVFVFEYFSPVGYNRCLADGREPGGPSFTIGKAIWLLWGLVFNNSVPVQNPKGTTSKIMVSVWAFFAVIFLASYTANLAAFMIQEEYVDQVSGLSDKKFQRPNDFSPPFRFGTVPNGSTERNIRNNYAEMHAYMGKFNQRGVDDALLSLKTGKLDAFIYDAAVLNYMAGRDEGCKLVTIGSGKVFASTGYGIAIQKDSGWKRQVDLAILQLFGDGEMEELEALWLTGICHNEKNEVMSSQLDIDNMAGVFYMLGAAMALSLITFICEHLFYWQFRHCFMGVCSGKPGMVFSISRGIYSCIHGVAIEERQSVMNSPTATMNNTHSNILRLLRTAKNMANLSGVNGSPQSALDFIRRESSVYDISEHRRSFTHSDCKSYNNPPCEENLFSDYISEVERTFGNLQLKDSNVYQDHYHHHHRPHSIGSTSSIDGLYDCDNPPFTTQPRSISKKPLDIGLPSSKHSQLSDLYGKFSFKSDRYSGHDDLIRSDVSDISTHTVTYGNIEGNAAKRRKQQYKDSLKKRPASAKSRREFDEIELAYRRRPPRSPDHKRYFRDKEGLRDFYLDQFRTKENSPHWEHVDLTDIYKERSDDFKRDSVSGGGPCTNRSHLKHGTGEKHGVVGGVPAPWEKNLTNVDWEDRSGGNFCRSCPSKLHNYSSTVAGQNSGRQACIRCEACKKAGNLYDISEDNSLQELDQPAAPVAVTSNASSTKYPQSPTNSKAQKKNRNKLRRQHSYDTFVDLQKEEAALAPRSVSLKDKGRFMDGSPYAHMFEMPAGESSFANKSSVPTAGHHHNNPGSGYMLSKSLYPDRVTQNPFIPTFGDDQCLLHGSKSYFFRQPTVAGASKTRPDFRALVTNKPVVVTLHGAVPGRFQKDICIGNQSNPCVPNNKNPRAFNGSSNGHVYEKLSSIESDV
Sequence of GluN1/GluN2D (Q62645 28-1323, other chains not shown): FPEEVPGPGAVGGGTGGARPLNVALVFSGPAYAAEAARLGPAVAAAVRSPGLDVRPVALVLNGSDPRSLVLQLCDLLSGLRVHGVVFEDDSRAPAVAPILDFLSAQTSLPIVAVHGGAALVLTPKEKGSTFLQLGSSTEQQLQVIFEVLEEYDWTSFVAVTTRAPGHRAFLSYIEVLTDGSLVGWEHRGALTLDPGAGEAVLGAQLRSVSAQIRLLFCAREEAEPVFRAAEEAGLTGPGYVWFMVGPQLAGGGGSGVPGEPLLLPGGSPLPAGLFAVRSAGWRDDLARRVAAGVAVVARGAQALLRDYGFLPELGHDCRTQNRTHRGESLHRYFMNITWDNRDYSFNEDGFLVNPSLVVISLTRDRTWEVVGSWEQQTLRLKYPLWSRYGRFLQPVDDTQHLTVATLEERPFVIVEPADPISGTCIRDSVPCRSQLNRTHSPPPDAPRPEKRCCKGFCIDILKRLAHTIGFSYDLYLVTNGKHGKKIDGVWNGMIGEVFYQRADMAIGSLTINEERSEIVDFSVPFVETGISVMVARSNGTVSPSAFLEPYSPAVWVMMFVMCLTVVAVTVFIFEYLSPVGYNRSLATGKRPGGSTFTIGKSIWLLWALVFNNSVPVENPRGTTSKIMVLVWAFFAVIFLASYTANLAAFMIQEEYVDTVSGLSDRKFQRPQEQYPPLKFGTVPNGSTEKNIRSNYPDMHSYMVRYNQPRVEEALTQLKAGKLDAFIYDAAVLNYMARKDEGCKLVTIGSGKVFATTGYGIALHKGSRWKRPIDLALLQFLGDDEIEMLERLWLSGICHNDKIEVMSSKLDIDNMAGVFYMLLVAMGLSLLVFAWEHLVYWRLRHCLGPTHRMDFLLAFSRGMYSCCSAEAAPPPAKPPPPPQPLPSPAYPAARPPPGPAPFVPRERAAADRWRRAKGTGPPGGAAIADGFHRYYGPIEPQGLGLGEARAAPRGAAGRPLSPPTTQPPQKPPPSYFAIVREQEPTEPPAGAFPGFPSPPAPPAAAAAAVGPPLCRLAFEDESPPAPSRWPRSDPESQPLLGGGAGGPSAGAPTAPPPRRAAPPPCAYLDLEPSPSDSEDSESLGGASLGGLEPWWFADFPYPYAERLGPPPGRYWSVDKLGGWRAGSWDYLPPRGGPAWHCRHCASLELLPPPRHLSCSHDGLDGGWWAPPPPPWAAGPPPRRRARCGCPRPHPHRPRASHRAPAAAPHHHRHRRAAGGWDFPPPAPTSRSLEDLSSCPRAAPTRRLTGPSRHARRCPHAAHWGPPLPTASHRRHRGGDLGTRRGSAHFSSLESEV
T1 sequence (Q00961 20-1237, other chains not shown): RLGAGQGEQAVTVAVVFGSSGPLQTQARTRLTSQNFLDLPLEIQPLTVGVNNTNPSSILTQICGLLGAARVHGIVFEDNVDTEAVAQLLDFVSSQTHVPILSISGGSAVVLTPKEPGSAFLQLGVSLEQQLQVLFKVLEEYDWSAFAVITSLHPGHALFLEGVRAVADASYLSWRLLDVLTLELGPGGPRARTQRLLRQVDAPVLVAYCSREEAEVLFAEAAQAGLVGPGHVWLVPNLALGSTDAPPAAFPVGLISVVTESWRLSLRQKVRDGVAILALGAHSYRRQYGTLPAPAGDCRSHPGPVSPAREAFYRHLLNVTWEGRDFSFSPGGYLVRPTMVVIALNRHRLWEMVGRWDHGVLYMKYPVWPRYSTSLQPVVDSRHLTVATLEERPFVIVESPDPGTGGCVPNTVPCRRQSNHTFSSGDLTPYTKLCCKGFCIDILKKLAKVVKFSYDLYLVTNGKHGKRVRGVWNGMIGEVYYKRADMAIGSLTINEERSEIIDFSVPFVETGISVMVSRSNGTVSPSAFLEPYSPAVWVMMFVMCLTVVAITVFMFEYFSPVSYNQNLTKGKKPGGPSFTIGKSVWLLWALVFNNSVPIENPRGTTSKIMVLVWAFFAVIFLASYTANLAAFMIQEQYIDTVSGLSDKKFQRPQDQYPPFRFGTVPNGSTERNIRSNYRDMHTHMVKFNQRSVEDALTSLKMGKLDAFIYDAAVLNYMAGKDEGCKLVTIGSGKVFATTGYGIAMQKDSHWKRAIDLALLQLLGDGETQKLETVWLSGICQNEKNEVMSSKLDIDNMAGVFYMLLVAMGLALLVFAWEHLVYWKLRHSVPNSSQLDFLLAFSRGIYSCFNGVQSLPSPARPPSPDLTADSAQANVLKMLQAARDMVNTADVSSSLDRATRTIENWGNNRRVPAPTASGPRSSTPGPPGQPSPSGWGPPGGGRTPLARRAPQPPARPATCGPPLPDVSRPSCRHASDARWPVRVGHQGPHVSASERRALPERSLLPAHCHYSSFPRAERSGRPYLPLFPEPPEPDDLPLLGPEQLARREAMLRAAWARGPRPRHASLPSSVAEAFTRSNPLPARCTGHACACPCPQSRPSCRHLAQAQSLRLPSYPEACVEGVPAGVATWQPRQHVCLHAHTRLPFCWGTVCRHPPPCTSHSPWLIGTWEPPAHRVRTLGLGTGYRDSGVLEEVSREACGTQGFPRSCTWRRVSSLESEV

- agonist activity on its own ([1]; in the absence of glutamate and glycine): no agonist activity
- activity at GluN2A-containing receptors [2]: did not show any activity
- activity at GluN2B-containing receptors [3]: did not show any activity
- activity at GluN2D-containing receptors [4]: did not show any activity
Compound: COC(=O)c1ccc(C2C(C(C)=O)=C(O)C(=O)N2CCc2c[nH]c3ccccc23)cc1 (centres unmarked) [Compound 1, Methyl 4-(1-(2-(1H-Indol-3-yl)ethyl)-3-acetyl-4-hydroxy-5-oxo-2,5-dihydro-1H-pyrrol-2-yl)benzoate]

- remaining activity at 100 µM ([5]; read-out: GluN1/GluN2C response to 100 μM of test compound, % of control): > 140%
Compound: COC(=O)c1ccc(C2C(C(=O)C(C)C)=C(O)C(=O)N2CCc2c[nH]c3ccccc23)cc1 (centres unmarked) [Compound 63, Methyl 4-(1-(2-(1H-Indol-3-yl)ethyl)-4-hydroxy-3-isobutyryl-5-oxo-2,5-dihydro-1H-pyrrol-2-yl)benzoate]

- activity at GluN2C-containing receptors [1]: inactive
- activity at GluN2A-containing receptors [2]: inactive
- activity at GluN2B-containing receptors [3]: inactive
- activity at GluN2D-containing receptors [4]: inactive
Compound: COC(=O)c1ccc(C2C(C(=O)c3ccccn3)=C(O)C(=O)N2CCc2c[nH]c3ccccc23)cc1 (centres unmarked) [Compound 71, Methyl 4-(1-(2-(1H-Indol-3-yl)ethyl)-4-hydroxy-5-oxo-3-picolinoyl-2,5-dihydro-1H-pyrrol-2-yl)benzoate]

- activity at GluN2C-containing receptors [1]: inactive
Compound: COC(=O)c1cccc(C2C(C(C)=O)=C(O)C(=O)N2CCc2c[nH]c3ccccc23)c1 (centres unmarked) [Compound 81]

- activity at GluN2C-containing receptors [1]: inactive
Compound: COC(=O)c1ccccc1C1C(C(C)=O)=C(O)C(=O)N1CCc1c[nH]c2ccccc12 (centres unmarked) [Compound 82, Methyl 2-(1-(2-(1H-Indol-3-yl)ethyl)-3-acetyl-4-hydroxy-5-oxo-2,5-dihydro-1H-pyrrol-2-yl)benzoate]

- activity at GluN2C-containing receptors [1]: inactivity
Compound: CC(=O)C1=C(O)C(=O)N(CCc2c[nH]c3ccccc23)C1c1ccc(C(=O)OC(C)C)cc1 (centres unmarked) [Compound 85, Isopropyl 4-(1-(2-(1H-Indol-3-yl)ethyl)-3-acetyl-4-hydroxy-5-oxo-2,5-dihydro-1H-pyrrol-2-yl)benzoate]

- activity at GluN2C-containing receptors [1]: inactivity
Compound: CC(=O)C1=C(O)C(=O)N(CCc2c[nH]c3ccccc23)C1c1ccc(C(=O)OC(C)(C)C)cc1 (centres unmarked) [Compound 86, tert-Butyl 4-(1-(2-(1H-Indol-3-yl)ethyl)-3-acetyl-4-hydroxy-5-oxo-2,5-dihydro-1H-pyrrol-2-yl) benzoate]

Compound: N#Cc1ccc(C2C(C(=O)c3cccnc3)=C(O)C(=O)N2CCc2c[nH]c3ccccc23)cc1 (centres unmarked) [Compound 87, 4-(1-(2-(1H-Indol-3-yl)ethyl)-4-hydroxy-3-nicotinoyl-5-oxo-2,5-dihydro-1H-pyrrol-2-yl)benzonitrile]
- activity at GluN2C-containing receptors [1]: none of these analogues exhibited any activity

Compound: CC(=O)C1=C(O)C(=O)N(CCc2c[nH]c3ccccc23)C1c1ccc([N+](=O)[O-])cc1 (centres unmarked) [Compound 88, 1-(2-(1H-Indol-3-yl)ethyl)-4-acetyl-3-hydroxy-5-(4-nitrophenyl)-1H-pyrrol-2(5H)-one]
- activity at GluN2C-containing receptors [1]: none of these analogues exhibited any activity

Compound: NS(=O)(=O)c1ccc(C2C(C(=O)c3cccnc3)=C(O)C(=O)N2CCc2c[nH]c3ccccc23)cc1 (centres unmarked) [Compound 92, 4-(1-(2-(1H-Indol-3-yl)ethyl)-4-hydroxy-3-nicotinoyl-5-oxo-2,5,-dihydro-1H-pyrrol-2-yl)benzenesulfonamide]
- activity at GluN2C-containing receptors [1]: none of these analogues exhibited any activity

Compound: CNS(=O)(=O)c1ccc(C2C(C(=O)c3cccnc3)=C(O)C(=O)N2CCc2c[nH]c3ccccc23)cc1 (centres unmarked) [Compound 93, 4-(1-(2-(1H-Indol-3-yl)ethyl)-4-hydroxy-3-nicotinoyl-5-oxo-2,5-dihydro-3-nicotinoyl-5-oxo-2,5-dihydro-1H-pyrrol-2-yl)-N-methylbenzenesulfonamide]
- activity at GluN2C-containing receptors [1]: none of these analogues exhibited any activity

- EC50 [5]: 18 ± 0.6 µM
- activity at GluN2A-containing receptors [2]: no effect
- activity at GluN2B-containing receptors [3]: no effect
- activity at GluN2D-containing receptors [4]: weak inhibition
Compound: COC(=O)c1ccc(C2C(C(C)=O)=C(O)C(=O)N2CCc2c(C)[nH]c3ccccc23)cc1 (centres unmarked) [Compound 106a]

- activity at GluN2C-containing receptors [1]: no activity
- activity at GluN2A-containing receptors [2]: inactive
- activity at GluN2B-containing receptors [3]: inactive
- activity at GluN2D-containing receptors [4]: inactive
Compound: COC(=O)c1ccc(C2C(C(C)=O)=C(O)C(=O)N2CCc2c(C)[nH]c3ccccc23)cc1 (centres unmarked) [Compound 106b]

- potency enhancement ([1]; GluN1/GluN2C EC50): 2 fold
Compound: CCOC(=O)c1ccc(C2C(C(C)=O)=C(O)C(=O)N2CCc2c(C)[nH]c3ccccc23)cc1 (centres unmarked) [Compound 119, Ethyl 4-(3-Acetyl-4-hydroxy-1-(2-(2-methyl-1H-indol-3-yl)ethyl)-5-oxo-2,5-dihydro-1H-pyrrol-2-yl)benzoate]

- activity at GluN2C-containing receptors [1]: eliminated all activity
Compound: COC(=O)c1ccc(C2C(C(=O)c3ccncc3)=C(O)C(=O)N2Cc2c[nH]c3ccccc23)cc1 (centres unmarked) [Compound 121, Methyl 4-(1-((1H-Indol-3-yl)methyl)-4-hydroxy-3-isonicotinoyl-5-oxo-2,5-dihydro-1H-pyrrol-2-yl)benzoate]

- activity at GluN2C-containing receptors [1]: eliminated all activity
Compound: COC(=O)c1ccc(C2C(C(=O)c3cccnc3)=C(O)C(=O)N2CCCc2c[nH]c3ccccc23)cc1 (centres unmarked) [Compound 122, Methyl 4-(1-(3-(1H-Indol-3-yl)propyl)-4-hydroxy-3-nicotinoyl-5-oxo-2,5-dihydro-1H-pyrrol-2-yl)benzoate]

- activity at GluN2C-containing receptors [1]: complete loss of potentiation
Compound: COC(=O)c1ccc(C2C(C(C)=O)=C(N)C(=O)N2CCc2c[nH]c3ccccc23)cc1 (centres unmarked) [Compound 157, Methyl 4-(1-(2-(1H-Indol-3-yl)ethyl)-3-acetyl-4-amino-5-oxo-2,5-dihydro-1H-pyrrol-2-yl)benzoate]

Compound: COC(=O)c1ccc(C2C(C(C)=O)=C(OC(C)=O)C(=O)N2CCc2c[nH]c3ccccc23)cc1 (centres unmarked) [Compound 158, Methyl 4-(1-(2-(1H-Indol-3-yl)ethyl)-4-acetoxy-3-acetyl-5-oxo-2,5-dihydro-1H-pyrrol-2-yl)benzoate]
- decrease in potency ([1]; GluN1/GluN2C EC50): 2 fold

- activity at GluN2C-containing receptors [1]: strong inhibition
- activity at GluN2A-containing receptors [2]: strong inhibition
- activity at GluN2B-containing receptors [3]: strong inhibition
- activity at GluN2D-containing receptors [4]: strong inhibition
Compound: COC(=O)c1ccc(C2C(C(=O)c3ccncc3)=C(O)C(=O)N2CCc2cccc3ccccc23)cc1 (centres unmarked) [Compound 162, Methyl 4-(4-Hydroxy-3-isonicotinoyl-1-(2-(naphthalen-1-yl)ethyl)-5-oxo-2,5-dihydro-1H-pyrrol-2-yl)benzoate]

- activity at GluN2C-containing receptors [1]: weak activity
Compound: COC(=O)c1ccc(C2C(C(=O)c3cccnc3)=C(O)C(=O)N2CCc2coc3ccccc23)cc1 (centres unmarked) [Compound 163, Methyl 4-(1-(2-(Benzofuran-3-yl)ethyl)-4-hydroxy-3-nicotinoyl-5-oxo-2,5-dihydro-1H-pyrrol-2-yl)benzoate]

- activity at GluN2C-containing receptors [1]: complete inactivity
Compound: COC(=O)c1ccc(C2C(C(=O)c3ccncc3)=C(O)C(=O)N2CCn2cnc3ccccc32)cc1 (centres unmarked) [Compound 164, Methyl 4-(1-(2-(1H-Benzo[d]imidazol-1-yl)ethyl)-4-hydroxy-3-isonicotinoyl-5-oxo-2,5-dihydro-1H-pyrrol-2-yl)benzoate]

- activity at GluN2C-containing receptors [1]: complete inactivity
Compound: COC(=O)c1ccc(C2C(C(=O)c3ccncc3)=C(O)C(=O)N2CCc2c[nH]cn2)cc1 (centres unmarked) [Compound 165, Methyl 4-(1-(2-(1H-Imidazol-4-yl)ethyl)-4-hydroxy-3-isonicotinoyl-5-oxo-2,5-dihydro-1H-pyrrol-2-yl)benzoate]

- activity at GluN2C-containing receptors [1]: inactivity
Compound: Methyl 4-(4-Hydroxy-1-(2-(1-methyl-1H-Indol-3-yl)ethyl)-3-nicotinoyl-5-oxo-2,5-dihydro-1H-pyrrol-2-yl)benzoate [Compound 105]

Reference: PMC3983368 (Journal of Medicinal Chemistry, 2014)
